According to PubChem BioAssay AID1259407 (Chemical Carcinogenesis Research Information System (CCRIS), 2018):
The source made the active and inactive calls. How the calls were made is not given here.

System: CCRIS mutagenicity, Ames/micronucleus/aberration tests
Assay: CCRIS mutagenicity studies
[1] = Test System: AMES SALMONELLA TYPHIMURIUM, Strain/Indicator: TA98, Metabolic Activation: HAMSTER, LIVER, S-9, AROCLOR 1254, Method: PREINCUBATION
[2] = Test System: AMES SALMONELLA TYPHIMURIUM, Strain/Indicator: TA98, Metabolic Activation: NONE, Method: PREINCUBATION
[3] = Test System: AMES SALMONELLA TYPHIMURIUM, Strain/Indicator: TA98, Metabolic Activation: NONE, Method: STANDARD PLATE
[4] = Test System: AMES SALMONELLA TYPHIMURIUM, Strain/Indicator: TA100, Metabolic Activation: NONE, Method: PREINCUBATION
[5] = Test System: AMES SALMONELLA TYPHIMURIUM, Strain/Indicator: TA100, Metabolic Activation: NONE, Method: STANDARD PLATE
[6] = Test System: AMES SALMONELLA TYPHIMURIUM, Strain/Indicator: TA1535, Metabolic Activation: NONE, Method: PREINCUBATION
[7] = Test System: AMES SALMONELLA TYPHIMURIUM, Strain/Indicator: TA1537, Metabolic Activation: NONE, Method: PREINCUBATION

Measured: mutagenic call

Nc1ccccc1[N+](=O)[O-]
active: End Point: IN VITRO CHROMOSOMAL ABERRATIONS, Test System: CHL CELLS, Metabolic Activation: RAT, LIVER, S-9, SODIUM PHENOBARBITAL AND 5,6-BENZOFLAVONE active; positive (structural changes) | Test System: AMES SALMONELLA TYPHIMURIUM, Strain/Indicator: TA98, Metabolic Activation: HAMSTER, LIVER, S-9, AROCLOR 1254, FLAVIN MONONUCLEOTIDE, Method: PREINCUBATION active; positive
inactive: End Point: IN VITRO MICRONUCLEUS, Test System: CHL/IU CELLS, Metabolic Activation: NONE inactive; negative | Test System: AMES SALMONELLA TYPHIMURIUM, Strain/Indicator: TA97, Metabolic Activation: NONE inactive; negative | Test System: AMES SALMONELLA TYPHIMURIUM, Strain/Indicator: TA97, Metabolic Activation: RAT, LIVER, S-9, AROCLOR 1254 inactive; negative | [1] inactive; negative | Test System: AMES SALMONELLA TYPHIMURIUM, Strain/Indicator: TA98, Metabolic Activation: NONE inactive; negative | [2] inactive; negative | [3] inactive; negative | Test System: AMES SALMONELLA TYPHIMURIUM, Strain/Indicator: TA98, Metabolic Activation: RAT, LIVER, S-9, AROCLOR 1254 inactive; negative | Test System: AMES SALMONELLA TYPHIMURIUM, Strain/Indicator: TA98, Metabolic Activation: RAT, LIVER, S-9, AROCLOR 1254, FLAVIN MONONUCLEOTIDE, Method: PREINCUBATION inactive; negative | Test System: AMES SALMONELLA TYPHIMURIUM, Strain/Indicator: TA98, Metabolic Activation: RAT, LIVER, S-9, AROCLOR 1254, Method: STANDARD PLATE inactive; negative | Test System: AMES SALMONELLA TYPHIMURIUM, Strain/Indicator: TA98, Metabolic Activation: RAT, LIVER, S-9, KANECHLOR 500, Method: PREINCUBATION inactive; negative | Test System: AMES SALMONELLA TYPHIMURIUM, Strain/Indicator: TA98, Method: PREINCUBATION inactive; negative | Test System: AMES SALMONELLA TYPHIMURIUM, Strain/Indicator: TA100, Metabolic Activation: NONE inactive; negative | [4] inactive; negative | [5] inactive; negative | Test System: AMES SALMONELLA TYPHIMURIUM, Strain/Indicator: TA100, Metabolic Activation: RAT, LIVER, S-9, AROCLOR 1254 inactive; negative | Test System: AMES SALMONELLA TYPHIMURIUM, Strain/Indicator: TA100, Metabolic Activation: RAT, LIVER, S-9, AROCLOR 1254, Method: STANDARD PLATE inactive; negative | Test System: AMES SALMONELLA TYPHIMURIUM, Strain/Indicator: TA100, Metabolic Activation: RAT, LIVER, S-9, KANECHLOR 500, Method: PREINCUBATION inactive; negative | Test System: AMES SALMONELLA TYPHIMURIUM, Strain/Indicator: TA100, Method: PREINCUBATION inactive; negative | Test System: AMES SALMONELLA TYPHIMURIUM, Strain/Indicator: TA102, Metabolic Activation: NONE inactive; negative | Test System: AMES SALMONELLA TYPHIMURIUM, Strain/Indicator: TA102, Metabolic Activation: RAT, LIVER, S-9, AROCLOR 1254 inactive; negative | [6] inactive; negative | Test System: AMES SALMONELLA TYPHIMURIUM, Strain/Indicator: TA1535, Metabolic Activation: NONE, Method: STANDARD PLATE inactive; negative | Test System: AMES SALMONELLA TYPHIMURIUM, Strain/Indicator: TA1535, Metabolic Activation: RAT, LIVER, S-9, AROCLOR 1254, Method: STANDARD PLATE inactive; negative | Test System: AMES SALMONELLA TYPHIMURIUM, Strain/Indicator: TA1535, Method: PREINCUBATION inactive; negative | [7] inactive; negative | Test System: AMES SALMONELLA TYPHIMURIUM, Strain/Indicator: TA1537, Metabolic Activation: NONE, Method: STANDARD PLATE inactive; negative | Test System: AMES SALMONELLA TYPHIMURIUM, Strain/Indicator: TA1537, Metabolic Activation: RAT, LIVER, S-9, AROCLOR 1254, Method: STANDARD PLATE inactive; negative | Test System: AMES SALMONELLA TYPHIMURIUM, Strain/Indicator: TA1537, Method: PREINCUBATION inactive; negative | Test System: AMES SALMONELLA TYPHIMURIUM, Strain/Indicator: TA1538, Metabolic Activation: NONE, Method: PREINCUBATION inactive; negative | Test System: AMES SALMONELLA TYPHIMURIUM, Strain/Indicator: TA1538, Metabolic Activation: NONE, Method: STANDARD PLATE inactive; negative | Test System: AMES SALMONELLA TYPHIMURIUM, Strain/Indicator: TA1538, Metabolic Activation: RAT, LIVER, S-9, AROCLOR 1254, Method: STANDARD PLATE inactive; negative | Test System: AMES SALMONELLA TYPHIMURIUM, Strain/Indicator: TA1538, Method: PREINCUBATION inactive; negative | Test System: UDS RODENT HEPATOCYTES, Strain/Indicator: THY INCORP (NON-S-PHASE), Metabolic Activation: NONE, Method: AUTORADIOGRAPHY inactive; negative

Clc1ccccc1Cl
inactive: End Point: IN VITRO CHROMOSOMAL ABERRATIONS, Test System: CHO-LB CELLS, Metabolic Activation: NONE inactive; negative | End Point: IN VITRO CHROMOSOMAL ABERRATIONS, Test System: CHO-LB CELLS, Metabolic Activation: RAT, LIVER, S-9, AROCLOR 1254 inactive; negative | [1] inactive; negative | [2] inactive; negative | [3] inactive; negative | Test System: AMES SALMONELLA TYPHIMURIUM, Strain/Indicator: TA98, Metabolic Activation: RAT, LIVER, S-9, AROCLOR 1254, Method: PREINCUBATION inactive; negative | Test System: AMES SALMONELLA TYPHIMURIUM, Strain/Indicator: TA98, Metabolic Activation: RAT, LIVER, S-9, AROCLOR, Method: STANDARD PLATE inactive; negative | Test System: AMES SALMONELLA TYPHIMURIUM, Strain/Indicator: TA100, Metabolic Activation: HAMSTER, LIVER, S-9, AROCLOR 1254, Method: PREINCUBATION inactive; negative | [4] inactive; negative | [5] inactive; negative | Test System: AMES SALMONELLA TYPHIMURIUM, Strain/Indicator: TA100, Metabolic Activation: RAT, LIVER, S-9, AROCLOR 1254, Method: PREINCUBATION inactive; negative | Test System: AMES SALMONELLA TYPHIMURIUM, Strain/Indicator: TA100, Metabolic Activation: RAT, LIVER, S-9, AROCLOR, Method: STANDARD PLATE inactive; negative | Test System: AMES SALMONELLA TYPHIMURIUM, Strain/Indicator: TA1535, Metabolic Activation: HAMSTER, LIVER, S-9, AROCLOR 1254, Method: PREINCUBATION inactive; negative | [6] inactive; negative | Test System: AMES SALMONELLA TYPHIMURIUM, Strain/Indicator: TA1535, Metabolic Activation: RAT, LIVER, S-9, AROCLOR 1254, Method: PREINCUBATION inactive; negative | Test System: AMES SALMONELLA TYPHIMURIUM, Strain/Indicator: TA1537, Metabolic Activation: HAMSTER, LIVER, S-9, AROCLOR 1254, Method: PREINCUBATION inactive; negative | [7] inactive; negative | Test System: AMES SALMONELLA TYPHIMURIUM, Strain/Indicator: TA1537, Metabolic Activation: RAT, LIVER, S-9, AROCLOR 1254, Method: PREINCUBATION inactive; negative | Test System: AMES SALMONELLA TYPHIMURIUM, Strain/Indicator: UTH8413, Metabolic Activation: NONE, Method: STANDARD PLATE inactive; negative | Test System: AMES SALMONELLA TYPHIMURIUM, Strain/Indicator: UTH8413, Metabolic Activation: RAT, LIVER, S-9, AROCLOR, Method: STANDARD PLATE inactive; negative | Test System: AMES SALMONELLA TYPHIMURIUM, Strain/Indicator: UTH8414, Metabolic Activation: NONE, Method: STANDARD PLATE inactive; negative | Test System: AMES SALMONELLA TYPHIMURIUM, Strain/Indicator: UTH8414, Metabolic Activation: RAT, LIVER, S-9, AROCLOR, Method: STANDARD PLATE inactive; negative

[CH3][Hg][CH3]
inactive: Test System: CHINESE HAMSTER G10, Strain/Indicator: G10/6-THIOGUANINE, Metabolic Activation: NONE inactive; negative | Test System: CHINESE HAMSTER G12, Strain/Indicator: G12/6-THIOGUANINE, Metabolic Activation: NONE inactive; negative | Test System: CHINESE HAMSTER V-79, Strain/Indicator: V-79/6-THIOGUANINE, Metabolic Activation: NONE inactive; negative
active: End Point: IN VITRO CHROMOSOMAL ABERRATIONS, Test System: HUMAN PERIPHERAL LYMPHOCYTES, Metabolic Activation: NONE active; positive (structural changes and ploidy)
